What was measured:
[1] = UV-Vis host-guest titration, association constant; format: binding; details: host (9) in dichloromethane; triplicate, TBA salt and acid; Bindfit
Procedure: (§1) Path length of the quartz cell was 1 cm. For UV-vis titrations, a stock solution of host was prepared (2.2×10^−3 M) in dichloromethane (DCM) and serially diluted to the required concentrations. Working solutions of tetrabutylammonium (TBA) anion salts or guest molecules were prepared in the same manner Host−guest titrations used solutions of guest prepared in the working concentration of host solution, according to the procedure of Thordarson, 2011.
(§2) UV-vis spectroscopic host−guest titrations were performed in accordance with the methodologies of Thordarson, 2011. Solutions of host in dichloromethane were prepared. Solutions of guest were then prepared in the host solution. Aliquots of guest in host solution were added to host solution and sequentially analysed until a known molar equivalent of guest was added. The amount of guest added per aliquot was ascertained by a preliminary screening experiment; strong association constants required smaller molar equivalents so more information could be collected. By way of example, host (9) responded to 0.1 molar equivalent of PFBA strongly, so an addition of 1 molar equivalent of PFBA would result in a loss of information. The inverse is true for weaker binding interactions. […]
(§3) A host solution of host (9) in dichloromethane was monitored using UV-Vis analysis as 0.5-10 equivalents of each PFAS was added. […]

[2] = UV-Vis host-guest titration, association constant; format: binding; details: host (9) in dichloromethane; triplicate, TBA salt and acid; Bindfit; remark: listed apart in the source
Procedure: as §1, §2, §3

[3] = Non-fluorinated and neutral fluorinated guest molecules, UV-Vis; format: binding; details: 10 molar equivalents, dichloromethane; immediately and 24 hours later
Procedure: The binding interaction was probed by combining the host (9) with non-fluorinated and neutral fluorinated guest molecules. Solutions of host (9) in dichloromethane were combined with 10 molar equivalents of tetrafluorobenzene and nonanoic acid. Solutions were analysed using UV-Vis spectroscopy (immediately and 24 hours later) to check for any indication of binding.

[4] = Preliminary binding study, colour change
Description: Preliminary binding studies were undertaken by combining an amide linked porphyrin host molecule (9) and tetrabutylammonium perfluorooctanoate (TBAPFO) in dichloromethane.

[5] = UV-Vis host-guest titration, association constant; format: binding; details: host (9) in dichloromethane; triplicate, TBA salt and acid; Bindfit; remark: listed apart in the source
Procedure: as §1, §2, §3

[6] = UV-Vis host-guest titration, association constant; format: binding; details: host (9) in dichloromethane; triplicate, TBA salt and acid; Bindfit; remark: listed apart in the source
Procedure: as §1, §2, §3

[7] = GenX vapour test with host-doped filter paper; details: for colour of host-doped paper in tube headspace: one hour
Procedure: A solution of medium chain host (9) (2.20×10^−5 M) in dichloromethane was prepared. Whatman 4 filter papers were soaked/dipped in the host solution and left to air dry on a watch glass. An aqueous solution of GenX™ (1 ppm, 3.03×10^−6 M) was prepared in a glass volumetric flask (1 L). The volumetric flask stopper was removed, and the dried host-doped paper was laid on top the opening.
An aqueous solution of GenX™ (1 ppm, 3.03×10^−6 M) was prepared in a glass volumetric flask (1 L). A solution of medium chain host (2.20×10^−5 M) in dichloromethane was prepared. Whatman 4 filter papers were soaked/dipped in the host solution and left to air dry on a watch glass. The filter papers were cut into strips and adhered to the lids of HDPP tubes. Aqueous samples of GenX™ were diluted to 1 ppm, 1 ppb and 1 ppt and poured into the HDPP tubes. The caps were immediately replaced, and the tubes were left for an hour.

[8] = UV-Vis host-guest titration, association constant; format: binding; details: host (9) in dichloromethane; triplicate, TBA salt and acid; Bindfit; remark: listed apart in the source
Procedure: as §1, §2, §3

[9] = Colorimetric matching of mixed PFCA samples, high concentration
Description: The present inventors investigated the colorimetric responses for host (12) with “high” concentrations of PFCA (where [host]<[guest]), and “low” concentrations of PFCA (where [host]>[guest]). Generally, RGB response values will increase with increasing concentrations of PFCA until the host has been saturated; beyond the saturation limit, RGB response values are similar. When there was an excess of guest, the response values could only be used as a threshold indication for PFCA concentrations.
RGB response curves were established by combining solutions of host (12) (5.01×10^−6 M) with solutions of PFOA (0-16 ppm, 3.86×10^−5 M) in dichloromethane. […] Thus, when establishing a calibration curve, the relative proportion of free host to host−PFCA complex limiting the variability of colour response must be considered for the application.
For the “high” PFCA concentration experiment, the PFOA generated calibration curve (y=0.0401 ln(x)+0.2366, R^2=0.9677) (FIG. 17) begins to level out at ca. 2 ppm. Above that concentration, the RGB response values are difficult to differentiate.

[10] = Colorimetric matching of mixed PFCA samples, low concentration
Procedure: In the “low” PFCA concentration experiment, the RGB response values had the greatest rate of change from 0-40 ppb PFOA and appeared to level out between 40-80 ppb PFOA. In that instance, the regression was fit for a host : guest ratio of 0-0.8. To probe the sensor's response to a mixture of PFCAs, samples containing combinations of PFHxA, PFHpA, and PFDA in dichloromethane (7-28 ppb) were prepared and the RGB responses were collected. The PFCA concentrations for the samples were predicted using the PFOA regression (y=0.0591 ln(x)+0.037, R^2=0.9771).
The lowest concentration PFCA sample (7 ppb) was predicted to be ca. 11 ppb (58% error) from the PFOA regression, whilst the higher concentration mixed PFCA samples (14.1 and 28.8 ppb) were predicted to be ca. 16 and 23 ppb (17 and 18% error respectively). Thus, host (12) may be coupled with a phone camera to estimate mixed PFCA concentrations from RGB data with <20% error, or used visually for threshold detection of total PFCA concentrations above 10 ppb.

In the case of `O=C(Nc1ccccc1-c1c2nc(c(-c3ccccc3NC(=O)C(F)(F)C(F)(F)C(F)(F)C(F)(F)C(F)(F)C(F)(F)C(F)(F)F)c3ccc([nH]3)c(-c3ccccc3NC(=O)C(F)(F)C(F)(F)C(F)(F)C(F)(F)C(F)(F)C(F)(F)C(F)(F)F)c3nc(c(-c4ccccc4NC(=O)C(F)(F)C(F)(F)C(F)(F)C(F)(F)C(F)(F)C(F)(F)C(F)(F)F)c4ccc1[nH]4)C=C3)C=C2)C(F)(F)C(F)(F)C(F)(F)C(F)(F)C(F)(F)C(F)(F)C(F)(F)F` [host (9), α,α,α,α-5,10,15,20-tetrakis(2-(pentadecafluorooctanoylamino)phenyl)porphyrin], the “K value (averaged association constant Ka)” value (from here on “K value”) [1] is reported as 20459, the “K value” value [2] is reported as 6585 and the colorimetric response [3] is reported as “no colorimetric response”. For the same molecule, the “colour change of host solution” value ([4]; addition of solid TBAPFO to red-brown host solution in dichloromethane) was “changed colour to green”, the “colour change of host solution, biphasic” value ([4]; host in dichloromethane (0.0124 mmol, 5 mL) and TBAPFO 3 ppm in water (500 mL)) was “colour change of the host solution could also be observed” and the “K value” value [5] was 392106. The “K value” value [6] was 15272, the “colour change of host-doped paper over aqueous GenX” value ([7]; GenX 1 ppm in water, paper on flask opening) was “A colour change developed immediately” and the “colour of host-doped paper in tube headspace” value ([7]; aqueous GenX 1 ppb) was “A green colour was visible”. The “colour of host-doped paper in tube headspace” value ([7]; aqueous GenX 1 ppm) was “A green colour was visible” and the “K value” value [8] was 58920.
In the case of `O=C(Nc1ccccc1-c1c2nc(c(-c3ccccc3NC(=O)C(F)(F)C(F)(F)C(F)(F)C(F)(F)C(F)(F)C(F)(F)C(F)(F)C(F)(F)C(F)(F)C(F)(F)C(F)(F)F)c3ccc([nH]3)c(-c3ccccc3NC(=O)C(F)(F)C(F)(F)C(F)(F)C(F)(F)C(F)(F)C(F)(F)C(F)(F)C(F)(F)C(F)(F)C(F)(F)C(F)(F)F)c3nc(c(-c4ccccc4NC(=O)C(F)(F)C(F)(F)C(F)(F)C(F)(F)C(F)(F)C(F)(F)C(F)(F)C(F)(F)C(F)(F)C(F)(F)C(F)(F)F)c4ccc1[nH]4)C=C3)C=C2)C(F)(F)C(F)(F)C(F)(F)C(F)(F)C(F)(F)C(F)(F)C(F)(F)C(F)(F)C(F)(F)C(F)(F)C(F)(F)F` [host (12), α,α,α,α-5,10,15,20-tetrakis(2-(tricosafluorododecanoylamino)phenyl) porphyrin], the ΔE ([9]; 15 vs 3 ppm PFCA sample) is reported as 10, the ΔE ([9]; 15 vs 12 ppm PFCA sample) is reported as 2 and the “[PFCA]predicted from PFOA regression” value ([9]; sample measured 0.20 ppm) is reported as 0.18 ppm. The “average ΔE of mixed PFCA samples vs host solution” value ([10]; 7-28 ppb) was over 10, the “concentration predicted from PFOA regression” value (from here on “concentration predicted”) ([10]; 7 ppb PFCA sample) was “ca. 11 ppb” and the “concentration predicted” value ([10]; 14.1 ppb mixed PFCA sample) was “ca. 16 ppb”. The “concentration predicted” value ([10]; 28.8 ppb mixed PFCA sample) was about 23 ppb, the “ΔE (Host − PFCA)” value ([10]; PFCAs 7 ppb) was 11 and the “ΔE (Host − PFCA)” value ([10]; PFCAs 14 ppb) was 11. The “ΔE (Host − PFCA)” value ([10]; PFCAs 28 ppb) was 12.

From patent publication US20240166658A1, “PORPHYRIN DERIVATIVES AND USES THEREOF” (University of Tasmania, priority 2021, published 2024)
